Article PMC8619046, “ABCB1 and ABCG2 Control Brain Accumulation and Intestinal Disposition of the Novel ROS1/TRK/ALK Inhibitor Repotrectinib, While OATP1A/1B, ABCG2, and CYP3A Limit Its Oral Availability” (Pharmaceutics, 2021)
Values joined by “and” are separate entries in the source; they are usually repeats but may differ in a detail not shown here. Equal entries are not always repeated. Where two headings read alike, the source gives them in different places.

Assay: 4-h oral plasma pharmacokinetics and tissue distribution, male wild-type and ABC transporter knockout mice
Format: in vivo
Conditions: 10 mg/kg oral; for AUC(0-t) / Kp at 4 h / concentration at 4 h / Cmax / Tmax: FVB, mouse; for AUC(0-t) / Cmax / Tmax: plasma; for AUC(0-t): read-out: AUC0–4h; for Fold change Cliver / Fold change SIC (% of dose) / Fold change ratio (SIC (%)-to-plasma) / Fold change ratio (liver-to-plasma) / Fold change ratio (testis-to-plasma) / Fold increase Cbrain / Fold increase Ctestis / Fold change ratio (brain-to-plasma) / Fold increase AUC0–4h: vs wild-type; for Tmax: median (range)
Description: Mice with similar average ages (and body weights) were randomly allocated in experimental groups as far as possible. Mice were maintained in a temperature-controlled and specific pathogen-free environment with a 12-h light and 12-h dark cycle and they received a standard diet (Transbreed, SDS Diets, Technilab-BMI, Someren, The Netherlands) and acidified water ad libitum. […] Given the objective main readout (repotrectinib plasma and tissue concentrations as measured by LC-MS/MS), no blinding method was applied.
Repotrectinib was dissolved in dimethyl sulfoxide (DMSO) at a concentration of 50 mg/mL. This stock solution was first diluted 3-fold with ethanol/polysorbate 80 (1/1; v/v), followed by further dilution with a 10 mM hydrochloric acid solution, yielding a dosing solution of 1 mg/mL, freshly prepared on the day of experiment. Final concentrations of the solvents in the administration solution were: 2%, 2%, 2%, and 94% (all v/v) for DMSO, ethanol, polysorbate 80, and 10 mM hydrochloric acid solution, respectively.
To minimize variation in absorption upon oral administration, mice were fasted for 2–3 h before repotrectinib (10 mg/kg body weight) was administered by gavage into the stomach at 10 µL/g body weight, with a blunt-ended needle. Tail vein serial blood samples were collected at 0.125, 0.25, 0.5, 1, 2 and 4 h using heparinized capillary tubes (Sarstedt, Nümbrecht, Germany) for the 8-h experiments. For the 4- and 2-h experiments, blood samplings were performed from the tail vein with the same schedule, but terminated at 2 and 1 h, respectively. Eight, four, or two hours after oral administration, mice were deeply anesthetized with 2–3% isoflurane, followed by cardiac puncture to collect blood in Eppendorf tubes containing heparin as an anticoagulant. Brain, liver, spleen, kidney, lung, small intestine, and testis were rapidly collected after sacrificing the mice by cervical dislocation. The small intestinal contents (SIC) were separated from small intestinal tissue (SI), which was flushed and rinsed with cold saline to remove any residual feces. Brain, liver, spleen, kidney, lung, SI, SIC, and testis were homogenized with 1, 3, 1, 2, 1, 3, 2, and 1 mL of 2% BSA (w/v), respectively. Plasma fraction was isolated from blood by centrifugation at 9000× g for 6 min at 4 °C. All samples were stored at −30 °C until analysis.
A sensitive and specific liquid chromatography-tandem mass spectrometry method using protein precipitation pre-treatment was adopted to quantify the concentration of repotrectinib in DMEM medium, plasma samples and tissue homogenates.
A non-compartmental model using the PKSolver add-in program for Microsoft Excel was adopted to calculate the pharmacokinetic parameters of repotrectinib. Oral availability was assessed by the plasma area under the curve (AUC), calculated using repotrectinib plasma concentration-time curves with the linear trapezoidal rule without extrapolating the infinity. Statistical testing was performed in Graphpad Prism7 (Graphpad Software, La Jolla, CA, USA). All data are presented as geometric means ± SD. Heteroscedastic data were log-transformed before applying statistical analysis. When differences between two groups were compared, the two-sided unpaired Student’s t test was used. One-way analysis of variance (ANOVA) was applied when multiple groups were compared, and the Bonferroni post hoc correction was used to accommodate multiple testing. Differences were considered statistically significant when P < 0.05.

[1] = male Abcb1a/1b;Abcg2−/− mice, 4 h
[2] = male Abcb1a/1b;Abcg2−/− mice, 4 h, 10 mg/kg
[3] = male Abcb1a/1b−/− mice, 4 h, 10 mg/kg
[4] = male, po, 10 mg/kg, male Abcb1a/1b;Abcg2−/− mice, 4 h
[5] = male, po, 10 mg/kg, male Abcb1a/1b−/− mice, 4 h
[6] = male, po, 10 mg/kg, male Abcg2−/− mice, 4 h
[7] = male, po, 10 mg/kg, male wild-type mice, 4 h

Structure (SMILES): C[C@H]1CNC(=O)c2cnn3ccc(nc23)N[C@H](C)c2cc(F)ccc2O1 [repotrectinib]
- Small intestinal content recovery, fold decrease (Abcb1a/1b;Abcg2−/− mice vs wild-type): 13.6 fold
- Small intestinal content recovery, fold decrease (Abcb1a/1b−/− mice vs wild-type): 4.9 fold
- reduction of liver-to-plasma ratio (Abcg2−/− and Abcb1a/1b;Abcg2−/− mice compared to wild-type mice, 4 h): 30–35%
- AUC(0-t) (male Abcg2−/− mice, 4 h): 11900 ± 1420 ng·h/mL
- Fold change Cliver [1]: 1.37
- Fold change SIC (% of dose) [1]: 0.07
- Fold change ratio (SIC (%)-to-plasma) [1]: 0.03
- Fold change ratio (liver-to-plasma) [1]: 0.69
- Fold change ratio (testis-to-plasma) [1]: 5.6
- Fold increase Cbrain [1]: 29.1
- Fold increase Ctestis [1]: 10.8
- Fold change ratio (brain-to-plasma) [2]: 14 and 14.2
- Fold increase AUC0–4h [2]: 2.0
- Fold change Cliver (male Abcb1a/1b−/− mice, 4 h): 0.84
- Fold change SIC (% of dose) (male Abcb1a/1b−/− mice, 4 h): 0.20
- Fold change ratio (SIC (%)-to-plasma) (male Abcb1a/1b−/− mice, 4 h): 0.21
- Fold change ratio (liver-to-plasma) (male Abcb1a/1b−/− mice, 4 h): 0.85
- Fold change ratio (testis-to-plasma) (male Abcb1a/1b−/− mice, 4 h): 2.42
- Fold increase AUC0–4h (male Abcb1a/1b−/− mice, 4 h): 1.32
- Fold increase Ctestis (male Abcb1a/1b−/− mice, 4 h): 2.45
- Fold change ratio (brain-to-plasma) [3]: 4.1 and 4.13
- Fold increase Cbrain [3]: 4.1 and 4.14
- Fold change Cliver (male Abcg2−/− mice, 4 h): 1.01
- Fold change SIC (% of dose) (male Abcg2−/− mice, 4 h): 0.87
- Fold change ratio (SIC (%)-to-plasma) (male Abcg2−/− mice, 4 h): 0.54
- Fold change ratio (brain-to-plasma) (male Abcg2−/− mice, 4 h): 0.93
- Fold change ratio (liver-to-plasma) (male Abcg2−/− mice, 4 h): 0.65
- Fold change ratio (testis-to-plasma) (male Abcg2−/− mice, 4 h): 0.71
- Fold increase Cbrain (male Abcg2−/− mice, 4 h): 1.41
- Fold increase Ctestis (male Abcg2−/− mice, 4 h): 1.07
- Fold increase AUC0–4h (male Abcg2−/− mice, 4 h, 10 mg/kg): 1.7
- Fold change Cliver (male wild-type mice, 4 h): 1.00
- Fold change SIC (% of dose) (male wild-type mice, 4 h): 1.00
- Fold change ratio (SIC (%)-to-plasma) (male wild-type mice, 4 h): 1.00
- Fold change ratio (brain-to-plasma) (male wild-type mice, 4 h): 1.00
- Fold change ratio (liver-to-plasma) (male wild-type mice, 4 h): 1.00
- Fold change ratio (testis-to-plasma) (male wild-type mice, 4 h): 1.00
- Fold increase AUC0–4h (male wild-type mice, 4 h): 1.00
- Fold increase Cbrain (male wild-type mice, 4 h): 1.00
- Fold increase Ctestis (male wild-type mice, 4 h): 1.00
- Kp at 4 h (male, brain, po, 10 mg/kg, male Abcb1a/1b;Abcg2−/− mice, 4 h, read-out: Brain-to-plasma ratio): 2.13 ± 0.21
- concentration at 4 h (male, brain, po, 10 mg/kg, male Abcb1a/1b;Abcg2−/− mice, 4 h, read-out: Cbrain): 2760 ± 928 ng/g
- Kp at 4 h (male, brain, po, 10 mg/kg, male Abcb1a/1b−/− mice, 4 h, read-out: Brain-to-plasma ratio): 0.62 ± 0.17
- concentration at 4 h (male, brain, po, 10 mg/kg, male Abcb1a/1b−/− mice, 4 h, read-out: Cbrain): 394 ± 102 ng/g
- Kp at 4 h (male, brain, po, 10 mg/kg, male Abcg2−/− mice, 4 h, read-out: Brain-to-plasma ratio): 0.14 ± 0.03
- concentration at 4 h (male, brain, po, 10 mg/kg, male Abcg2−/− mice, 4 h, read-out: Cbrain): 134 ± 18 ng/g
- Kp at 4 h (male, brain, po, 10 mg/kg, male wild-type mice, 4 h, read-out: Brain-to-plasma ratio): 0.15 ± 0.03
- concentration at 4 h (male, brain, po, 10 mg/kg, male wild-type mice, 4 h, read-out: Cbrain): 95.1 ± 23.5 ng/g
- concentration at 4 h (male, liver, po, 10 mg/kg, male Abcb1a/1b;Abcg2−/− mice, 4 h, read-out: Cliver): 9090 ± 2750 ng/g
- Kp at 4 h (male, liver, po, 10 mg/kg, male Abcb1a/1b;Abcg2−/− mice, 4 h, read-out: Liver-to-plasma ratio): 7.2 ± 1.2
- concentration at 4 h (male, liver, po, 10 mg/kg, male Abcb1a/1b−/− mice, 4 h, read-out: Cliver): 5580 ± 2030 ng/g
- Kp at 4 h (male, liver, po, 10 mg/kg, male Abcb1a/1b−/− mice, 4 h, read-out: Liver-to-plasma ratio): 8.9 ± 2.4
- concentration at 4 h (male, liver, po, 10 mg/kg, male Abcg2−/− mice, 4 h, read-out: Cliver): 6690 ± 1210 ng/g
- Kp at 4 h (male, liver, po, 10 mg/kg, male Abcg2−/− mice, 4 h, read-out: Liver-to-plasma ratio): 6.8 ± 0.6
- concentration at 4 h (male, liver, po, 10 mg/kg, male wild-type mice, 4 h, read-out: Cliver): 6630 ± 1160 ng/g
- Kp at 4 h (male, liver, po, 10 mg/kg, male wild-type mice, 4 h, read-out: Liver-to-plasma ratio): 10.5 ± 1.9
- Cmax [4]: 5230 ± 1240 ng/mL
- AUC(0-t) [4]: 14000 ± 3180 ng·h/mL
- Cmax [5]: 3630 ± 620 ng/mL
- AUC(0-t) [5]: 9200 ± 1640 ng·h/mL
- Cmax [6]: 5080 ± 490 ng/mL
- Cmax [7]: 3080 ± 1440 ng/mL
- AUC(0-t) [7]: 6990 ± 2460 ng·h/mL
- Tmax [4]: 60 min
- Tmax [5]: 30 min
- Tmax [6]: 15 min
- Tmax [7]: 30 min
- Kp at 4 h (male, small intestinal content, po, 10 mg/kg, male Abcb1a/1b;Abcg2−/− mice, 4 h, read-out: SIC (%)-to-plasma ratio): 0.0003 ± 9e-05
- Kp at 4 h (male, small intestinal content, po, 10 mg/kg, male Abcb1a/1b−/− mice, 4 h, read-out: SIC (%)-to-plasma ratio): 0.00186 ± 0.00084
- Kp at 4 h (male, small intestinal content, po, 10 mg/kg, male Abcg2−/− mice, 4 h, read-out: SIC (%)-to-plasma ratio): 0.00475 ± 0.00154
- Kp at 4 h (male, small intestinal content, po, 10 mg/kg, male wild-type mice, 4 h, read-out: SIC (%)-to-plasma ratio): 0.00879 ± 0.00241
- concentration at 4 h (male, testis, po, 10 mg/kg, male Abcb1a/1b;Abcg2−/− mice, 4 h, read-out: Ctestis): 1670 ± 386 ng/g
- Kp at 4 h (male, testis, po, 10 mg/kg, male Abcb1a/1b;Abcg2−/− mice, 4 h, read-out: Testis-to-plasma ratio): 1.35 ± 0.31
- concentration at 4 h (male, testis, po, 10 mg/kg, male Abcb1a/1b−/− mice, 4 h, read-out: Ctestis): 380 ± 122 ng/g
- Kp at 4 h (male, testis, po, 10 mg/kg, male Abcb1a/1b−/− mice, 4 h, read-out: Testis-to-plasma ratio): 0.58 ± 0.14
- concentration at 4 h (male, testis, po, 10 mg/kg, male Abcg2−/− mice, 4 h, read-out: Ctestis): 166 ± 27 ng/g
- Kp at 4 h (male, testis, po, 10 mg/kg, male Abcg2−/− mice, 4 h, read-out: Testis-to-plasma ratio): 0.17 ± 0.02
- concentration at 4 h (male, testis, po, 10 mg/kg, male wild-type mice, 4 h, read-out: Ctestis): 155 ± 55 ng/g
- Kp at 4 h (male, testis, po, 10 mg/kg, male wild-type mice, 4 h, read-out: Testis-to-plasma ratio): 0.24 ± 0.07
- SIC (% of dose) (small intestinal content, male Abcb1a/1b;Abcg2−/− mice, 4 h, 10 mg/kg): 0.4 % of dose and 0.41 ± 0.23 ^(##) % of dose
- SIC (% of dose) (small intestinal content, male Abcb1a/1b−/− mice, 4 h, 10 mg/kg): 1.1 % of dose and 1.13 ± 0.40 % of dose
- SIC (% of dose) (small intestinal content, male Abcg2−/− mice, 4 h, 10 mg/kg): 4.8 % of dose and 4.84 ± 2.21 % of dose
